Source: patent publication US20210317099A1, “SAFER, POTENT, AND FAST ACTING ANTIMICROBIAL AGENTS” (Purdue Research Foundation, priority 2020, published 2021)
In brackets after ≈: the same amount, converted by molar mass. Like-named read-outs stand apart in the source and are kept apart here.

Key:
[1] = system: Enterococcus faecalis ATCC 51299 (VRE); test: MIC, Gram-positive panel; assay type: cell-based
Description: (§1) Next, the spectrum of antibacterial activity of compounds 144, 148, 149, 151, 155, 158, and 187 was examined against a panel of clinically relevant Gram-positive bacterial pathogens including methicillin-resistant Staphylococcus aureus (MRSA), vancomycin-resistant Staphylococcus aureus (VRSA), vancomycin-resistant Enterococcus faecalis and Enterococcus faecium (VRE), and Streptococcus pneumoniae. Bacterial strains were grown aerobically overnight on tryptone soya agar plates at 37° C. Afterwards, a bacterial solution equivalent to 0.5 McFarland standard was prepared and diluted in cation-adjusted Mueller-Hinton broth (CAMHB) (for staphylococci). Enterococci and Streptococci were diluted in tryptone soya broth (TSB) to achieve a bacterial concentration of about 5×10^5 CFU/mL and seeded in 96-well plates. Compounds and control drugs were added in the first row of 96-well plates and serially diluted with media containing bacteria. Plates were then, incubated aerobically at 37° C. for 18-20 hours (except for S. pneumoniae, which was incubated at 37° C. in presence of 5% CO2 for 18-20 hours).

[2] = system: Enterococcus faecium ATCC 700221 (VRE); test: MIC, Gram-positive panel; assay type: cell-based
Description: as §1

MRSA NRS 119 = test: MIC, Gram-positive panel; assay type: cell-based; details: Staphylococcus aureus
Description: as §1

MRSA NRS 123 = test: MIC, Gram-positive panel; assay type: cell-based; details: Staphylococcus aureus
Description: as §1

MRSA NRS 385 = test: MIC, Gram-positive panel; assay type: cell-based; details: Staphylococcus aureus
Description: as §1

MRSA NRS 386 = test: MIC, Gram-positive panel; assay type: cell-based; details: Staphylococcus aureus
Description: as §1

[3] = system: Methicillin-resistant S. epidermidis NRS101; test: MIC, Gram-positive panel; assay type: cell-based; details: Staphylococcus epidermidis
Description: as §1

[4] = system: Methicillin-resistant S. pneumoniae ATCC 700677; test: MIC, Gram-positive panel; assay type: cell-based; details: Streptococcus pneumoniae, ATCC700677
Description: as §1

S. aureus ATCC 6538 = test: MIC, Gram-positive panel; assay type: cell-based; details: Staphylococcus aureus, ATCC6538
Description: as §1

S. aureus NRS 107 = test: MIC, Gram-positive panel; assay type: cell-based; details: Staphylococcus aureus, NRS107
Description: as §1

S. pneumoniae ATCC 51916 = test: MIC, Gram-positive panel; assay type: cell-based; details: Streptococcus pneumoniae, ATCC51916
Description: as §1

VRSA 10 = test: MIC, Gram-positive panel; assay type: cell-based; details: Staphylococcus aureus
Description: as §1

VRSA 12 = test: MIC, Gram-positive panel; assay type: cell-based; details: Staphylococcus aureus
Description: as §1

MRSA USA 400 = test: Time-kill assay; assay type: cell-based, Staphylococcus aureus; details: 5×MIC; for time required for complete eradication of the bacterial count: MRSA USA 400, 24-hour incubation
Description: In order to the mode of killing of methylene lactone compounds, a time kill assay was performed against MRSA USA 400 as described previously. MRSA USA400 cells in logarithmic growth phase (OD600˜1.00) were diluted to 6.03×10^6 colony-forming units (CFU/mL) and exposed to concentrations equivalent to 5×MIC (in triplicate) of 148, 149, 151, 155, 158 and vancomycin in Tryptic soy broth. Aliquots (100 μL) were collected from each treatment after 0, 2, 4, 6, 8, 12, and 24 hours of incubation at 37° C. and subsequently serially diluted in PBS. Bacteria were then transferred to Tryptic soy agar plates and incubated at 37° C. for 18-20 hours before viable CFU/mL was determined (FIG. 1).
DMSO (solvent for the compounds) served as a negative control and vancomycin served as a control drug. The error bars represent standard deviation values obtained from triplicate samples used for each compound/antibiotic studied.

[5] = system: total proteases production in MRSA USA300; test: Inhibition of staphylococcal total proteases production, skimmed milk method; assay type: cell-based, Staphylococcus aureus; details: MRSA USA300, 0.25×MIC, untreated = 100%
Description: The modified skimmed milk method was utilized to investigate the protease inhibitory activities of BHS compounds as described previously. In brief, overnight culture of MRSA300 in TSB, with and without subinhibitory concentrations of compounds (in triplicate), was centrifuged at 14000×g for 10 minutes. Then, a total volume of 500 μL of culture supernatant was incubated with 1 mL skimmed milk (1.25%) at 37° C. for 1 hour. Afterwards, the OD600 was measured to indicate the degree of clearance of skimmed milk. Higher OD values indicate lower proteolytic activity and greater protease inhibitory activity.
FIG. 4. Influence of BHS compounds on the staphylococcal total protease production. OD600 was measured following overnight culturing of MRSA USA300 in TSB in presence and absence of 0.25×MIC of 148, 149, 155, 158 and vancomycin followed by incubation of supernatants with skim milk for 1 hour at 37° C. The Data are presented as percent production (means±standard deviation). DMSO (the solvent for the compounds that served as a negative control). Vancomycin served as the control antibiotic. The values represent an average (means±standard deviation) of four samples analyzed for each compound/antibiotic. Error bars represent standard deviation values. An asterisk (*) denotes statistical significance (P<0.05) between results for compounds 148, 149, 155, 158 and vancomycin analyzed via unpaired t test ([…]).

[6] = system: intracellular MRSA USA400 inside murine macrophage (J774) cells; test: Clearance of intracellular MRSA in infected J774 macrophages; assay type: cell-based, Staphylococcus aureus; details: 24 hours, J774 infected with MRSA USA400
Description: The ability of the compound 148 to reduce the burden of intracellular MRSA was evaluated utilizing previously described methods. Murine macrophage cells (J774) were cultured in Dulbecco's Modified Eagle Medium (DMEM) supplemented with 10% FBS at 37° C. with CO2 (5%). J774 cells were exposed to MRSA USA400 cells at a multiplicity of infection of approximately 10:1. After 1 hour of infection, J774 cells were washed with gentamicin (200 μg/mL) to kill extracellular MRSA. The compounds or vancomycin (at 4×MIC and 8×MIC) were subsequently added to each well (four replicates per test agent). Control cells received DMSO at a concentration equal to that in drug-treated cell samples. After 24 hours-incubation at 37° C. with 5% CO2, the test agents were removed. J774 cells were washed and subsequently lysed using 0.1% Triton-X. The solution was serially diluted in phosphate-buffered saline and transferred to TSA plates in order to determine viable MRSA CFU inside the J774 cells. Plates were incubated at 37° C. for 18-22 hour before counting viable CFU/mL. Statistical significance was assessed with two-way ANOVA, with post hoc Dunnet's multiple comparisons test (P<0.05), utilizing GraphPad Prism 6.0 (GraphPad Software, La Jolla, Calif.).
FIG. 6. Examination of the activity of compounds 148 on the clearance of intracellular MRSA present inside infected murine macrophage (J774) cells. […] Data were analyzed via two-way ANOVA, with post hoc Dunnet's multiple comparisons test (P<0.05), utilizing GraphPad Prism 6.0 (GraphPad Software, La Jolla, Calif.). Asterisks (*) represent significant difference between treatment of J774 cells with compound 148 in comparison to vancomycin.

[7] = system: Staphylococcus aureus NRS384 (MRSA USA300); test: Initial MIC screening, broth microdilution (CLSI); assay type: cell-based; details: for MIC: Staphylococcus aureus NRS384 (MRSA USA300), broth microdilution, visual reading
Description: Method: The minimum inhibitory concentration (MIC) of the compounds 1-187, and control antibiotics (vancomycin, linezolid) was determined using the broth microdilution method against methicillin-resistant Staphylococcus aureus (MRSA) USA 300 using the broth microdilution method according to the guidelines outlined by the Clinical and Laboratory Standards Institute (CLSI). MRSA strain was cultivated on Tryptic soy agar plates and let grow for 24 hours at 37° C. under aerobic conditions. Bacterial suspension equivalent to 0.5 McFarland standard was prepared and diluted in cation-adjusted Mueller-Hinton broth (CAMHB) to attain a bacterial concentration of 5×10^5 CFU/ml and seeded in 96-well plates. The desired concentrations of each drug and compound were added in the first row of the 96-well plates and serially diluted to achieve a concentration gradient from 64 μg/ml to 0.5 μg/mL.

[8] = Enterococcus faecalis ATCC 51299 (VRE), read-out: MIC
[9] = Enterococcus faecium ATCC 700221 (VRE), read-out: MIC
[10] = Methicillin-resistant S. epidermidis NRS101, read-out: MIC
[11] = Methicillin-resistant S. pneumoniae ATCC 700677, read-out: MIC
[12] = S. aureus ATCC 6538, read-out: MIC
[13] = S. aureus NRS 107, read-out: MIC
[14] = S. pneumoniae ATCC 51916, read-out: MIC

| Compound | MIC [1, 8] [µg/mL] | MIC [2, 9] [µg/mL] | MIC (MRSA NRS 119; MRSA NRS 119, read-out: MIC) [µg/mL] | MIC (MRSA NRS 123; MRSA NRS 123, read-out: MIC) [µg/mL] | MIC (MRSA NRS 385; MRSA NRS 385, read-out: MIC) [µg/mL] | MIC (MRSA NRS 386; MRSA NRS 386, read-out: MIC) [µg/mL] | MIC [3, 10] [µg/mL] | MIC [4, 11] [µg/mL] | MIC (S. aureus ATCC 6538; [12]) [µg/mL] | MIC (S. aureus NRS 107; [13]) [µg/mL] | MIC (S. pneumoniae ATCC 51916; [14]) [µg/mL] | MIC (VRSA 10; VRSA 10, read-out: MIC) [µg/mL] | MIC (VRSA 12; VRSA 12, read-out: MIC) [µg/mL] | time required for complete eradication of the bacterial count (MRSA USA 400) | total protease production [5] | also measured |
| --- | --- | --- | --- | --- | --- | --- | --- | --- | --- | --- | --- | --- | --- | --- | --- | --- |
| CC(=O)NC[C@H]1CN(c2ccc(N3CCOCC3)c(F)c2)C(=O)O1 [linezolid, reference compound] | 2 (≈ 5.93 µM) | 1 (≈ 2.96 µM) | > 16 | 2 (≈ 5.93 µM) | 2 (≈ 5.93 µM) | 2 (≈ 5.93 µM) | 1 (≈ 2.96 µM) | 2 (≈ 5.93 µM) | 2 (≈ 5.93 µM) | 1 (≈ 2.96 µM) | 2 (≈ 5.93 µM) | 1 (≈ 2.96 µM) | 1 (≈ 2.96 µM) |  |  |  |
| CN[C@H](CC(C)C)C(=O)N[C@H]1C(=O)N[C@@H](CC(N)=O)C(=O)N[C@H]2C(=O)N[C@H]3C(=O)N[C@H](C(=O)N[C@H](C(=O)O)c4cc(O)cc(O)c4-c4cc3ccc4O)[C@H](O)c3ccc(c(Cl)c3)Oc3cc2cc(c3O[C@@H]2O[C@H](CO)[C@@H](O)[C@H](O)[C@H]2O[C@H]2C[C@](C)(N)[C@H](O)[C@H](C)O2)Oc2ccc(cc2Cl)[C@H]1O [vancomycin, reference compound] |  |  |  |  |  |  |  |  |  |  |  |  |  | 12 h | ineffective | MIC ([1]; Enterococcus faecalis): 32 µg/mL (≈ 22.1 µM); MIC ([2]; Enterococcus faecium): > 64 µg/mL; MIC (MRSA NRS 119): 1 µg/mL (≈ 0.69 µM); MIC (MRSA NRS 123): 1 µg/mL (≈ 0.69 µM); MIC (MRSA NRS 385): 1 µg/mL (≈ 0.69 µM); MIC (MRSA NRS 386): 1 µg/mL (≈ 0.69 µM); MIC ([3]; NRS101): 2 µg/mL (≈ 1.38 µM); MIC [4]: 2 µg/mL (≈ 1.38 µM); MIC (S. aureus ATCC 6538): 1 µg/mL (≈ 0.69 µM); MIC (S. aureus NRS 107): 2 µg/mL (≈ 1.38 µM); MIC (S. pneumoniae ATCC 51916): 2 µg/mL (≈ 1.38 µM); MIC (VRSA 10; VRSA): > 64 µg/mL; MIC (VRSA 12; VRSA): > 64 µg/mL; reduction of intracellular MRSA ([6]; 4 μg/mL): not able to reduce; reduction of intracellular MRSA ([6]; 8 μg/mL): not able to reduce |
| C=C(C(=O)OC)C(c1ccc2ccccc2c1)C(O)c1ccc2ccccc2c1 (centres unmarked) [Compound 149] | > 64 | > 64 | 1 (≈ 2.61 µM) | 1 (≈ 2.61 µM) | 1 (≈ 2.61 µM) | 1 (≈ 2.61 µM) | 2 (≈ 5.23 µM) | 4 (≈ 10.5 µM) | 1 (≈ 2.61 µM) | 1 (≈ 2.61 µM) | 4 (≈ 10.5 µM) | 8 (≈ 20.9 µM) | 16 (≈ 41.8 µM) | not able to completely eradicate it after 24 hours | 63% | potency compared with control antibiotic ([7]; MRSA USA300, Table 1 assay): potency comparable to vancomycin; MIC [7]: 2 µg/mL (≈ 5.23 µM); MIC ([7]; Staphylococcus aureus, read-out: MIC): 1 to 2 µg/mL (≈ 2.61 to 5.23 µM); reduction in the bacterial count after 6 hours (MRSA USA 400; MRSA USA 400, after 6 hours): 3 log10; reduction in the bacterial count after 6 hours (percent) (MRSA USA 400; MRSA USA 400, after 6 hours): 99.9% |
